Earlier results as cited in article PMC4584145 (Antiviral chemistry & chemotherapy, 2011).

Experiments:
N-HR of HIV-1 gp41 = details: ELISA; N-HR containing amino acid positions 18 to 73
[1] = test system: 5-helix complex (three N-HRs and two C-HRs)

Substance: C34: representative C-HR-derived peptide that inhibits HIV-1 fusion to host cells
- binding to the N-HR (N-HR of HIV-1 gp41): binds strongly

Substance: Enfuvirtide [T20]
- binding to the N-HR (N-HR of HIV-1 gp41): binds weakly
- interaction with artificial 5-helix complex [1]: much weaker than that between C34 and the complex
